Tested on: 521955-158-R2-J5-PDC complex spheroid viability
Assay: Anticancer human tumor 521955-158-R2-J5-PDC patient-derived pancreatic carcinoma cell line growth inhibition
Conditions: for IC50: curve of first compound; for viability, T/C: stronger effect = lower value
Method in brief: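 Multicellular complex spheroids of tumor cells with human endothelial cells (HUVEC) and mesenchymal stem cells; the LSD1 inhibitor iadademstat was combined with standard-of-care or investigational agents. Top concentration at or near clinical Cmax, half-log dilutions; final DMSO ≤0.25%.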

[1] = second compound 0.1 µM, first compound 0.0316 µM
[2] = second compound 0.1 µM, first compound 0.1 µM
[3] = second compound 0.1 µM, first compound 0.316 µM
[4] = second compound 0.1 µM, first compound 1 µM
[5] = second compound 0.1 µM, first compound 3.16 µM
[6] = second compound 0.1 µM, first compound 10 µM
[7] = second compound 0.316 µM, first compound 0.0316 µM
[8] = second compound 0.316 µM, first compound 0.1 µM
[9] = second compound 0.316 µM, first compound 0.316 µM
[10] = second compound 0.316 µM, first compound 1 µM
[11] = second compound 0.316 µM, first compound 3.16 µM
[12] = second compound 0.316 µM, first compound 10 µM
[13] = second compound 1 µM, first compound 0.0316 µM
[14] = second compound 1 µM, first compound 0.1 µM
[15] = second compound 1 µM, first compound 0.316 µM
[16] = second compound 1 µM, first compound 1 µM
[17] = second compound 1 µM, first compound 3.16 µM
[18] = second compound 1 µM, first compound 10 µM
[19] = second compound 3.16 µM, first compound 0.0316 µM
[20] = second compound 3.16 µM, first compound 0.1 µM
[21] = second compound 3.16 µM, first compound 0.316 µM
[22] = second compound 3.16 µM, first compound 1 µM
[23] = second compound 3.16 µM, first compound 3.16 µM
[24] = second compound 3.16 µM, first compound 10 µM
[25] = second compound 10 µM, first compound 0.0316 µM
[26] = second compound 10 µM, first compound 0.1 µM
[27] = second compound 10 µM, first compound 0.316 µM
[28] = second compound 10 µM, first compound 1 µM
[29] = second compound 10 µM, first compound 3.16 µM
[30] = second compound 10 µM, first compound 10 µM
[31] = second compound 0.1 µM, first compound 0.00949 µM
[32] = second compound 0.1 µM, first compound 0.03 µM
[33] = second compound 0.1 µM, first compound 0.0949 µM
[34] = second compound 0.1 µM, first compound 0.3 µM
[35] = second compound 0.316 µM, first compound 0.00949 µM
[36] = second compound 0.316 µM, first compound 0.03 µM
[37] = second compound 0.316 µM, first compound 0.0949 µM
[38] = second compound 0.316 µM, first compound 0.3 µM
[39] = second compound 1 µM, first compound 0.00949 µM
[40] = second compound 1 µM, first compound 0.03 µM
[41] = second compound 1 µM, first compound 0.0949 µM
[42] = second compound 1 µM, first compound 0.3 µM
[43] = second compound 3.16 µM, first compound 0.00949 µM
[44] = second compound 3.16 µM, first compound 0.03 µM
[45] = second compound 3.16 µM, first compound 0.0949 µM
[46] = second compound 3.16 µM, first compound 0.3 µM
[47] = second compound 10 µM, first compound 0.00949 µM
[48] = second compound 10 µM, first compound 0.03 µM
[49] = second compound 10 µM, first compound 0.0949 µM
[50] = second compound 10 µM, first compound 0.3 µM
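Also: spheroids exposed to agents for seven days.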
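For viability, T/C in this document: percent of DMSO vehicle control luminescence viability.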

## CC1(C)CCC(CN2CCN(c3ccc(C(=O)NS(=O)(=O)c4ccc(NCC5CCOCC5)c([N+](=O)[O-])c4)c(Oc4cnc5[nH]ccc5c4)c3)CC2)=C(c2ccc(Cl)cc2)C1 + NC1CC1c1ccc(-c2cccc(O)c2)cc1
Second compound 0.1 µM
  IC50: 3980 nM
Second compound 0.316 µM
  IC50: 3860 nM
Second compound 1 µM
  IC50: 3900 nM
Second compound 3.16 µM
  IC50: 4070 nM
Second compound 10 µM
  IC50: 3860 nM
[1]
  viability, T/C: 93.2%
[2]
  viability, T/C: 86%
[3]
  viability, T/C: 95.6%
[4]
  viability, T/C: 92.8%
[5]
  viability, T/C: 62.4%
[6]
  viability, T/C: 0.69%
[7]
  viability, T/C: 81.4%
[8]
  viability, T/C: 93.3%
[9]
  viability, T/C: 91.6%
[10]
  viability, T/C: 84.6%
[11]
  viability, T/C: 60.4%
[12]
  viability, T/C: 1.04%
[13]
  viability, T/C: 82%
[14]
  viability, T/C: 92.6%
[15]
  viability, T/C: 96.4%
[16]
  viability, T/C: 86.9%
[17]
  viability, T/C: 61%
[18]
  viability, T/C: 0.96%
[19]
  viability, T/C: 87.9%
[20]
  viability, T/C: 89.4%
[21]
  viability, T/C: 99.4%
[22]
  viability, T/C: 90.2%
[23]
  viability, T/C: 63.7%
[24]
  viability, T/C: 1.07%
[25]
  viability, T/C: 98.4%
[26]
  viability, T/C: 103%
[27]
  viability, T/C: 107%
[28]
  viability, T/C: 86.6%
[29]
  viability, T/C: 61.2%
[30]
  viability, T/C: 0.78%

## CC1COCCN1c1cc(C2(S(C)(=N)=O)CC2)nc(-c2ccnc3[nH]ccc23)n1 (stereo not given) + NC1CC1c1ccc(-c2cccc(O)c2)cc1
Second compound 0.1 µM
  IC50: 564 nM
Second compound 0.316 µM
  IC50: 543 nM
Second compound 1 µM
  IC50: 666 nM
Second compound 3.16 µM
  IC50: 587 nM
Second compound 10 µM
  IC50: 567 nM
[1]
  viability, T/C: 82.3%
[2]
  viability, T/C: 93.9%
[3]
  viability, T/C: 77.7%
[4]
  viability, T/C: 22.6%
[5]
  viability, T/C: 15.7%
[6]
  viability, T/C: 20.8%
[7]
  viability, T/C: 84%
[8]
  viability, T/C: 86.3%
[9]
  viability, T/C: 74.5%
[10]
  viability, T/C: 22.4%
[11]
  viability, T/C: 15.2%
[12]
  viability, T/C: 20.4%
[13]
  viability, T/C: 83%
[14]
  viability, T/C: 90.8%
[15]
  viability, T/C: 87.6%
[16]
  viability, T/C: 29.7%
[17]
  viability, T/C: 15.9%
[18]
  viability, T/C: 16.8%
[19]
  viability, T/C: 81%
[20]
  viability, T/C: 80.2%
[21]
  viability, T/C: 78.5%
[22]
  viability, T/C: 25.5%
[23]
  viability, T/C: 14.9%
[24]
  viability, T/C: 15.3%
[25]
  viability, T/C: 88.8%
[26]
  viability, T/C: 102%
[27]
  viability, T/C: 69.8%
[28]
  viability, T/C: 30.7%
[29]
  viability, T/C: 14.9%
[30]
  viability, T/C: 17.6%

## CCN(c1cc(-c2ccc(CN3CCOCC3)cc2)cc(C(=O)NCc2c(C)cc(C)[nH]c2=O)c1C)C1CCOCC1 + NC1CC1c1ccc(-c2cccc(O)c2)cc1
Second compound 0.1 µM
  IC50: > 3000 nM
Second compound 0.316 µM
  IC50: > 3000 nM
Second compound 1 µM
  IC50: > 3000 nM
Second compound 3.16 µM
  IC50: > 3000 nM
Second compound 10 µM
  IC50: > 3000 nM
[31]
  viability, T/C: 98.8%
[32]
  viability, T/C: 96.3%
[33]
  viability, T/C: 87.4%
[34]
  viability, T/C: 82.1%
Second compound 0.1 µM, first compound 0.949 µM
  viability, T/C: 86.8%
Second compound 0.1 µM, first compound 3 µM
  viability, T/C: 72.3%
[35]
  viability, T/C: 89%
[36]
  viability, T/C: 85.2%
[37]
  viability, T/C: 82.4%
[38]
  viability, T/C: 82.2%
Second compound 0.316 µM, first compound 0.949 µM
  viability, T/C: 82.2%
Second compound 0.316 µM, first compound 3 µM
  viability, T/C: 77.5%
[39]
  viability, T/C: 75.5%
[40]
  viability, T/C: 88.3%
[41]
  viability, T/C: 88.4%
[42]
  viability, T/C: 87.1%
Second compound 1 µM, first compound 0.949 µM
  viability, T/C: 79.8%
Second compound 1 µM, first compound 3 µM
  viability, T/C: 85.7%
[43]
  viability, T/C: 91.2%
[44]
  viability, T/C: 91.6%
[45]
  viability, T/C: 92.4%
[46]
  viability, T/C: 83.9%
Second compound 3.16 µM, first compound 0.949 µM
  viability, T/C: 70.9%
Second compound 3.16 µM, first compound 3 µM
  viability, T/C: 77.7%
[47]
  viability, T/C: 83.4%
[48]
  viability, T/C: 110%
[49]
  viability, T/C: 92.2%
[50]
  viability, T/C: 82.7%
Second compound 10 µM, first compound 0.949 µM
  viability, T/C: 80.3%
Second compound 10 µM, first compound 3 µM
  viability, T/C: 76.7%

## Cn1ncnc1C1c2n[nH]c(=O)c3cc(F)cc(c23)NC1c1ccc(F)cc1 (stereo not given) + NC1CC1c1ccc(-c2cccc(O)c2)cc1
Second compound 0.1 µM
  IC50: > 100 nM
Second compound 0.316 µM
  IC50: > 100 nM
Second compound 1 µM
  IC50: > 100 nM
Second compound 3.16 µM
  IC50: > 100 nM
Second compound 10 µM
  IC50: > 100 nM
Second compound 0.1 µM, first compound 0.000316 µM
  viability, T/C: 91.4%
Second compound 0.1 µM, first compound 0.001 µM
  viability, T/C: 89.3%
Second compound 0.1 µM, first compound 0.00316 µM
  viability, T/C: 92.2%
Second compound 0.1 µM, first compound 0.01 µM
  viability, T/C: 80.4%
[1]
  viability, T/C: 77.3%
[2]
  viability, T/C: 76.2%
Second compound 0.316 µM, first compound 0.000316 µM
  viability, T/C: 91.5%
Second compound 0.316 µM, first compound 0.001 µM
  viability, T/C: 100%
Second compound 0.316 µM, first compound 0.00316 µM
  viability, T/C: 92.9%
Second compound 0.316 µM, first compound 0.01 µM
  viability, T/C: 88.8%
[7]
  viability, T/C: 83%
[8]
  viability, T/C: 78.9%
Second compound 1 µM, first compound 0.000316 µM
  viability, T/C: 82%
Second compound 1 µM, first compound 0.001 µM
  viability, T/C: 83.8%
Second compound 1 µM, first compound 0.00316 µM
  viability, T/C: 93.1%
Second compound 1 µM, first compound 0.01 µM
  viability, T/C: 91.8%
[13]
  viability, T/C: 94.9%
[14]
  viability, T/C: 81.1%
Second compound 3.16 µM, first compound 0.000316 µM
  viability, T/C: 94.9%
Second compound 3.16 µM, first compound 0.001 µM
  viability, T/C: 103%
Second compound 3.16 µM, first compound 0.00316 µM
  viability, T/C: 101%
Second compound 3.16 µM, first compound 0.01 µM
  viability, T/C: 95%
[19]
  viability, T/C: 89%
[20]
  viability, T/C: 84.5%
Second compound 10 µM, first compound 0.000316 µM
  viability, T/C: 97.8%
Second compound 10 µM, first compound 0.001 µM
  viability, T/C: 96.1%
Second compound 10 µM, first compound 0.00316 µM
  viability, T/C: 108%
Second compound 10 µM, first compound 0.01 µM
  viability, T/C: 94.4%
[25]
  viability, T/C: 90.2%
[26]
  viability, T/C: 87.7%

## Nc1ncn(C2CC(O)C(CO)S2)c(=O)n1 (stereo not given) + NC1CC1c1ccc(-c2cccc(O)c2)cc1
Second compound 0.1 µM
  IC50: > 300 nM
Second compound 0.316 µM
  IC50: > 300 nM
Second compound 1 µM
  IC50: > 300 nM
Second compound 3.16 µM
  IC50: > 300 nM
Second compound 10 µM
  IC50: > 300 nM
Second compound 0.1 µM, first compound 0.000949 µM
  viability, T/C: 90.7%
Second compound 0.1 µM, first compound 0.003 µM
  viability, T/C: 96.2%
[31]
  viability, T/C: 90.1%
[32]
  viability, T/C: 98%
[33]
  viability, T/C: 85.2%
[34]
  viability, T/C: 64.7%
Second compound 0.316 µM, first compound 0.000949 µM
  viability, T/C: 98.7%
Second compound 0.316 µM, first compound 0.003 µM
  viability, T/C: 94.3%
[35]
  viability, T/C: 93.1%
[36]
  viability, T/C: 89.5%
[37]
  viability, T/C: 76.6%
[38]
  viability, T/C: 69.2%
Second compound 1 µM, first compound 0.000949 µM
  viability, T/C: 98.4%
Second compound 1 µM, first compound 0.003 µM
  viability, T/C: 90%
[39]
  viability, T/C: 94%
[40]
  viability, T/C: 88.8%
[41]
  viability, T/C: 90%
[42]
  viability, T/C: 75.3%
Second compound 3.16 µM, first compound 0.000949 µM
  viability, T/C: 98.5%
Second compound 3.16 µM, first compound 0.003 µM
  viability, T/C: 101%
[43]
  viability, T/C: 92.7%
[44]
  viability, T/C: 91%
[45]
  viability, T/C: 87.6%
[46]
  viability, T/C: 69.9%
Second compound 10 µM, first compound 0.000949 µM
  viability, T/C: 99%
Second compound 10 µM, first compound 0.003 µM
  viability, T/C: 105%
[47]
  viability, T/C: 100%
[48]
  viability, T/C: 97.3%
[49]
  viability, T/C: 90.3%
[50]
  viability, T/C: 71.8%

From PubChem BioAssay AID1918937 (Molecular Pharmacology Branch, DTP, NCI, 2023)
